How the values were obtained:
hind paws of rats = assay: carrageenin-induced edema test; assay type: in vivo; details: for inhibition of paw swelling: 50 mg/kg, administered prior to carrageenin, vs contralateral (control) paws; for anti-inflammatory activity (in words): carrageenin-induced edema, rats
Experimental: It has now been discovered that Punaglandin-1 and -2 are useful in the treatment of inflammation and arthritis in mammals. […] A. Winter, Proc. Soc. Exp. Biol. Med., 111, 544 (1962). In this method, inflammation is induced by injecting carrageenin into one of the hind paws of rats. Test compounds were administered prior to the carrageenin injection to determine the percent inhibition of the subsequent inflammation, in comparison with the animals' contralateral (control) paws.

[1] = system: adjuvant-induced arthritis in rats, uninjected hind paw; assay: Developing adjuvant-induced arthritis test in rats: uninjected hind paw volume; assay type: in vivo, male Lewis-Wistar rats; details: 10 mg/kg I.P. × 29 daily doses; difference of areas under the curves of mean uninjected paw volumes, TB controls vs treated

Row | Compound | inhibition of paw swelling (hind paws of rats; intraperitoneal) [%] | inhibition of paw swelling (hind paws of rats; subcutaneous) [%] | anti-inflammatory activity (in words) (hind paws of rats) | % Inhibition of Uninjected Paw Volume Inflammation, Days 16 through 30 [1] [%]
1 | CC/C=C\C/C=C\CC1(O)C=C(Cl)C(=O)C1C(OC(C)=O)C(OC(C)=O)C(CCCC(=O)OC)OC(C)=O (centres unmarked) [Punaglandin-1, 5,6,7-tris(acetyloxy)-7-(4-chloro-2-hydroxy-2-[2(Z),5(Z)-octadienyl]-5-oxo-3-cyclopenten-1-yl)heptanoic acid, methyl ester] | 79.6 | 62.1 | anti-inflammatory activity | 56.7
2 | CCCCC/C=C\CC1(O)C=C(Cl)C(=O)C1C(OC(C)=O)C(OC(C)=O)C(CCCC(=O)OC)OC(C)=O (centres unmarked) [Punaglandin-2, 5,6,7-tris(acetyloxy)-7-(4-chloro-2-hydroxy-2-[2-(Z)-octenyl]-5-oxo-3-cyclopenten-1-yl)heptanoic acid, methyl ester] | – | – | anti-inflammatory activity | –
